Results taken from patent EP0337714A2, “HIV protease inhibitors useful for the treatment of aids” (priority 1988, dated 1989).

Columns and labels:
HIV protease [1] = target: T1, HIV protease (Human immunodeficiency virus type 1 group M subtype B, UniProt P03366); test: biochemical; conditions: protease expressed in Eschericia coli, substrate Val-Ser-Gln-Asn-(betanapthyl)Ala-Pro-ile-Val 0.5 mg/mL, 50 mM Na acetate, pH 5.5, 30°, 1 hour; read-out: ICso
T1 construct: made in house; host or cells: Escherichia coli
Description: Assay for Inhibition of Microbial Expressed Viral Protease
Inhibition studies of the reaction of the protease expressed in Eschericia coli with a peptide substrate [Val-Ser-Gln-Asn-(betanapthyl)Ala-Pro-ile-Val, 0.5 mg/mL at the time the reaction is initiated] were in 50 mM Na acetate, pH 5.5, at 30° for 1 hour. Various concentrations of inhibitor in 1.0 ul DMSO were added to 25 ui of the peptide solution in water. The reaction is initiated by the addition of 15 ul of 0.33 nM protease (0.11 ng) in a solution of 0.133 M Na acetate pH 5.5 and 0.267% bovine serum albumin. The reaction was quenched with 160 ul of 5% phosphoric acid. Products of the reaction were separated by HPLC (VYDAC wide pore 5 cm C-18 reverse phase, acetonitrile gradient, 0.1% phosphoric acid). The extent of inhibition of the reaction was determined from the peak heights of the products.
Additional compounds were tested by the assay of Example 9.

HIV protease [2] = target: T1, HIV protease; test: Assay for Inhibition of Synthetic Viral Protease (HPLC of peptide substrate cleavage products); type: biochemical; conditions: synthetic protease (residues 69-167 of the pol open reading frame), substrate Val-Ser-Gln-Asn-Tyr-Pro-Ile-Val 2 mg/mL, 50 mM Na acetate, pH 5.5, 30 C, 1 hour; read-out: ICso
Description: Assay for Inhibition of Synthetic Viral Protease
Inhibition studies of the reaction of the synthetic protease [amino acid residues 69-167 of the pol open reading frame in Ratner, L. et al, Nature, 313, 277 (1985) and synthesized by Merrifield solid-phase synthesis] with a peptide substrate[Val-Ser-Gln-Asn-Tyr-Pro-Ile-Val, 2 mg/mL when the reaction is initiated) were in 50 mM Na acetate, pH 5.5, at 30 C for 1 hour. Various concentrations of inhibitor in 1.0 µl DMSO were added to 36 µl of assay solution and the reaction initiated by the addition of 4 ul (1.6 µg) of synthetic protease. The reaction was quenched with 160 ul of 12% acetic acid. Products of the reaction were separated by HPLC (VYDAC wide pore 5 cm C-18 reverse phase, acetonitrile gradient, 0.1% trifluoroacetic acid). The extent of inhibition of the reaction was determined from the peak heights of the products. HPLC of the products, independently synthesized, provided quantitation standards and confirmation of the product composition.

| Compound | IC50 (HIV protease [1]) | IC50 (HIV protease [2]) |
| --- | --- | --- |
| CC(C)C[C@H](NC(=O)[C@H](Cc1ccccc1)C[C@H](O)[C@H](Cc1ccccc1)NC(=O)OC(C)(C)C)C(=O)N[C@@H](Cc1ccccc1)C(N)=O [Compound I, N'-(1,1-Dimethylethoxycarbonyl)-5(S)-amino-4(S)-hydroxy-6-phenyl-2(R)-(phenylmethyl)-hexanoyl-Leucyl-phenylalanyl amide] | ~0.6 nM | ~2 nM |
| CC(C)C[C@H](NC(=O)[C@H](Cc1ccccc1)C[C@H](O)[C@H](Cc1ccccc1)NC(=O)OC(C)(C)C)C(=O)NCc1ccccc1 [Compound II, N-Benzyl-N'-(1,1-dimethylethexycarbonyl)-5(S)-amino-4(S)-hydroxy-6-phenyl-2(R)-(phenylmethyl)hexanoyl-leucyl-amide] | ~1.4 nM | – |
| CC(C)(C)OC(=O)N[C@@H](Cc1ccccc1)[C@@H](O)C[C@@H](Cc1ccccc1)C(=O)NCc1ccccc1 [Compound III] | ~120 nM | ~50 nM |
| CC(C)C[C@H](NC(=O)[C@H](Cc1ccccc1)C[C@H](O)[C@H](CC1CCCCC1)NC(=O)OC(C)(C)C)C(=O)N[C@@H](Cc1ccccc1)C(N)=O [Compound IV, N'-(1,1-dimethylethoxycarbonyl)-5(S)-amino-4(S)-hydroxy-6-cyclohexyl-2(R)-(phenylmethyl)hexanoyl-leucyl-phenylalanylamide] | – | ~27 nM |
